Laboratory results: patent US11591596B2, “Compounds and compositions including phosphorothioated oligodeoxynucleotide, and methods of use thereof” (City of Hope, priority 2015, dated 2023)

Experiments:
miR126 = experiment: miRNA 126 expression in AML and CML cell lines by Q-RT-PCR; type: cell-based, human; settings: 500 nM, 24 hours
Method: FIGS. 4A-4G are bar graphs showing miRNA 126 expression in AML and CML cell lines. Cells were cultured with miR126-inhibitor-Cy3 (Cy3-200 nM0, human CD45 (Ab-200 nM) or Transferrin (TF-200 nM)-conjugated NP containing antagomiR-126-Cy3, CpG-miR126 inhibitor-Cy3 (CpG-Cy3-200 nM and 500 nM) for 24 hours, then miR126 and RNU44 (control) expression in these cells was analyzed by q-RT PCR. The miR126 expression levels were normalized to RNU44 and calculated by using the comparative 2^−ΔΔct method. FIG. 4A is a bar graph showing miRNA 126 expression in the K562 CML cell line. FIG. 4B is a bar graph showing miRNA 126 expression in the KG1A AML cell line. FIG. 4C is a bar graph showing miRNA 126 expression in the MV4-11 AML cell line. FIG. 4D is a bar graph showing the miRNA 126 expression in the Molm13 AML cell line. FIG. 4E is a bar graph showing the miRNA 126 expression in the NB4 AML cell line. […]
miRNA 126 expression in AML and CML lines was evaluated. CML (K562) (FIG. 4A) and AML cell lines (KG1A, MV4-11, Molm13, NB4, OCI and HL60) (FIGS. 4B-4G) were cultured with anti-miR126 inhibitor-Cy3 (Cy3 ctrl, 200 nM), human CD45 (Ab-NP, 200 nM) or Transferrin (TF-NP, 200 nM)-conjugated NP containing anti-miR-126-Cy3, or CpG-anti-miR126 inhibitor-Cy3 (CpG-200 nM and 500 nM) for 24 hours, then miR126 and RNU44 (control) expression in these cells were analyzed by Q-RT-PCR.

[1] = system: long term hematopoietic stem cells (LTHSC, Lin-Sca-1+c-kit+Fit3-CD150+CD48−) from normal and CML mouse; experiment: Cell cycling of murine LTHSC by EDU/DAPi staining; type: cell-based; settings: 500 nM, compared with the CpG-Scr
Method: Normal (NL) and CML murine LTHSC (Lin-Sca-1+Kit+Fit3− CD150+CD48− cells) were sorted and then treated with 500 nm CpG-miR126 inhibitor or CpG-SCR for 72 hours, then cell cycling was analyzed by EDU/DAPi staining.

mouse CML LSC = experiment: In vivo treatment of transplanted CML mice in combination with NIL; settings: 5 mg/kg i.v. 4 times a week plus NIL 50 mg/kg daily by gavage, 3 weeks
Method: FIGS. 24A-24I. […] BM cells from SCL-tTA/BCR-ABL mice (CD45.2) were transplanted into congenic B6 mice (CD45.1, n=40) to generate a cohort of mice with CML-like disease. Following confirmation of CML development at 4 weeks after transplantation, mice were randomly divided into 4 groups (n=10 each) and treated with CpG-miR-126 inhibitor (5 mg/kg i.v. 4 times a week), CpG-scrRNA (5 mg/kg, i.v. 4 times a week), CpG-miR-126 inhibitor plus NIL (50 mg/kg, daily by gavage), and CpG-scrRNA plus NIL for 3 weeks. Percentage of donor CML cells in peripheral blood (PB) (FIG. 24A), spleen (FIG. 24B) and bone marrow (BM) (FIG. 24C), numbers of donor CML LSK in spleen (FIG. 24D) and BM (FIG. 24E), and numbers of donor CML long term hematopoietic stem cells (LTHSC) in spleen (FIG. 24F) and BM (FIG. 24G) after 3 weeks' treatment were measured. […] The recipient mice were monitored for 16 weeks for CML cell engraftment in blood and leukemia development by WBC count. Frequency of LIC was quantified using L-Calc software (FIG. 24I). […]
BM cells from SCL-tTA/BCR-ABL mice (CD45.2) were transplanted into congenic B6 mice (CD45.1, n=40) to generate a cohort of mice with CML-like disease. […] The recipient mice were monitored for 16 weeks for CML cell engraftment in blood and leukemia development by WBC count. Frequency of LIC was quantified using L-Calc software (FIG. 24I). […]

For “5′ G*G*T GCA TCG ATG CAGG*G*G* G*G (SEQ ID NO: 1) xxxxx mCmGmC mAmUmU mAmUmU mAmCmU mCmAmC mGmGmU mAmCmG mA (SEQ ID NO: 17) 3′ [CpG-anti-miR126]”, the “downregulation of miRNA126” value (miR126; all tested human AML and CML cell lines) was “most effective downregulation”, the “reduction of target miRNA expression” value (miR126; HL60, K562, MV4-11, MOLM13 and OCI cells) was “more than 50%” and the cell-cycle entry [1] was “increased cell-cycle entry”. The “elimination of mouse CML LSC” value (mouse CML LSC) was “enhances elimination of mouse CML LSC”.
